The NIST ThermoML archive (doi:10.1016/j.jct.2008.10.010)
Numbers after ± are expanded uncertainties.

Key:
[1] = 298.15 K; 101.33 kPa; Liquid; Pycnometric method
[2] = molar heat capacity at constant pressure; conditions: 101.33 kPa, Liquid, Small sample (50 mg) DSC
[3] = refractive index (Na D-line) (dimensionless); conditions: 298.15 K; 101.33 kPa; Liquid; Standard Abbe refractometry

CCC(C)(C)O [2-methylbutan-2-ol]
Conditions | mass density [kg/m3] | refractive index
[1] | 804.32 ± 0.79 | –
[3] | – | 1.4025 ± 0.0008

[2]
Conditions | molar heat capacity at constant pressure [J/K/mol]
284.14 K | 233.4 ± 3.6
285.15 K | 234.44 ± 3.6
286.16 K | 235.36 ± 3.6
287.14 K | 236.15 ± 3.7
288.15 K | 237.23 ± 3.7
289.14 K | 238.19 ± 3.7
290.14 K | 239.11 ± 3.7
291.15 K | 240.18 ± 3.7
292.14 K | 241.19 ± 3.7
293.14 K | 242.22 ± 3.8
294.15 K | 243.25 ± 3.8
295.14 K | 244.25 ± 3.8
296.14 K | 245.3 ± 3.8
297.15 K | 246.36 ± 3.8
298.14 K | 247.43 ± 3.8
298.15 K | 247.44 ± 3.8
298.16 K | 247.45 ± 3.8
299.14 K | 248.43 ± 3.9
300.15 K | 249.45 ± 3.9
301.14 K | 250.56 ± 3.9
302.14 K | 251.71 ± 3.9
303.15 K | 252.8 ± 3.9
304.14 K | 253.86 ± 3.9
305.14 K | 255.01 ± 4
306.15 K | 256.09 ± 4
307.16 K | 257.16 ± 4
308.14 K | 258.22 ± 4
309.15 K | 259.29 ± 4
310.16 K | 260.36 ± 4
311.14 K | 261.32 ± 4
312.15 K | 262.41 ± 4.1
313.16 K | 263.51 ± 4.1
314.14 K | 264.5 ± 4.1
315.15 K | 265.53 ± 4.1
316.16 K | 266.49 ± 4.1
317.14 K | 267.5 ± 4.1
318.15 K | 268.57 ± 4.2
319.15 K | 269.56 ± 4.2
320.14 K | 270.43 ± 4.2
321.15 K | 271.49 ± 4.2
322.15 K | 272.37 ± 4.2
323.14 K | 273.32 ± 4.2
324.15 K | 274.25 ± 4.2
325.15 K | 275.15 ± 4.3
326.14 K | 276.09 ± 4.3
327.15 K | 276.89 ± 4.3
328.15 K | 277.86 ± 4.3
329.14 K | 278.7 ± 4.3
330.14 K | 279.59 ± 4.3
331.15 K | 280.35 ± 4.3
332.14 K | 281.18 ± 4.4
333.14 K | 282.05 ± 4.4
334.15 K | 283 ± 4.4
335.14 K | 283.68 ± 4.4
336.14 K | 284.35 ± 4.4
337.15 K | 285.19 ± 4.4
338.14 K | 285.94 ± 4.4
339.14 K | 286.59 ± 4.4
340.15 K | 287.37 ± 4.5
341.13 K | 287.88 ± 4.5
342.14 K | 288.59 ± 4.5
343.15 K | 289.15 ± 4.5
344.16 K | 289.83 ± 4.5
345.14 K | 290.42 ± 4.5
346.15 K | 290.94 ± 4.5
347.16 K | 291.42 ± 4.5
348.14 K | 292.03 ± 4.5
349.15 K | 292.61 ± 4.5
350.16 K | 293.03 ± 4.5
351.14 K | 293.51 ± 4.5
352.15 K | 293.87 ± 4.5
353.15 K | 294.39 ± 4.6
354.15 K | 294.87 ± 4.6
355.13 K | 295.24 ± 4.6
356.14 K | 295.66 ± 4.6
357.15 K | 296.1 ± 4.6
358.15 K | 296.36 ± 4.6
359.14 K | 296.72 ± 4.6
360.15 K | 296.98 ± 4.6
361.15 K | 297.18 ± 4.6
362.15 K | 297.48 ± 4.6
363.14 K | 297.69 ± 4.6
364.15 K | 297.95 ± 4.6
365.15 K | 298.16 ± 4.6
366.14 K | 298.39 ± 4.6
367.15 K | 298.46 ± 4.6
368.15 K | 298.75 ± 4.6
368.76 K | 298.79 ± 4.6
